Measurements published in patent publication US7427416B2, “Methods of treating conditions using metal-containing materials” (Nucryst Pharmaceuticals Corp., priority 2000, dated 2008).
Where “and” joins values, the source holds several entries; their conditions need not be identical. Equal entries are not always repeated.

What was measured:
[1] = tested on: Pseudomonas aeruginosa strain 5588 infected lungs; assay: nebulized forms of silver in rats, gross lung score; format: in vivo, rat; conditions: after 24 h, nebulized solutions (400 ppm; colloidal silver 20 ppm)
Protocol: A solution was prepared by sparging CO2 through 1000 ml of reverse osmosis water using commercial CO2 Soda Syphon Charger. This process results in the pH of the water dropping to about 4. At this point, approximately 333 ml of the carbonated water was decanted into a plastic bottle and 333 square inches of nanocrystalline silver-coated net was added to the water. The nanocrystalline silver-coated net and water were placed in 37° C. shaker incubator and shaken at 180 RPM for 30 minutes to elevate the pH to approximately 5.8. The solution was then transferred to a beaker and stirred vigorously for 2 minutes to raise the pH to approximately at 7.3.
A colloidal silver solution (20 ppm) in was obtained from a commercial source.
The dissolution solutions were transferred to commercial nebulizers which were connected to a Medical air cylinder with a flow rate of approx. 20 L/min. The outflows of the nebulizers were connected to an animal chamber housing the rats to be dosed. All rats (40 randomly assigned animals) received the dosing. The rats received two —½ hour aerosol administrations of the test solutions on the day of infection. […]
All rats of each group of animals were sacrificed after 24 h. […] Lungs were grossly scored (absent=0, mild=1, moderate=2, and severe=3) based on the degree of involvement of consolidation, hemorrhage, edema and necrosis based upon gross observation.

[2] = tested on: Staphylococcus aureus; assay: aerosol of silver solutions on streaked agar plates; format: cell-based; design: key to Growth at 16 h (0−++++) / Growth at 48 h (0−++++): (0−++++); (0−++++); (0−++++); (0−++++); conditions: for Growth at 16 h (0−++++) / Growth at 48 h (0−++++): aerosol 53 minutes
Protocol: (§1) The solutions were in turn placed in an ultrasonic nebulizer that created small droplets containing dissolved and suspended parts of the silver solution. The output from the nebulizer was directed into a chamber made from a stainless steel frame and base. Petri dishes containing Mueller Hinton agar streaked with 4 h old cultures of Pseudomonas aeruginosa and Staphylococcus aureus, were exposed to the silver solution aerosols and the silver nitrate aerosols.
(§2) The method used for the current tests was the mechanical method in the form of an ultrasonic nebulizer. For convenience an ultrasonic humidifier was used. The liquid containing the dissolved and suspended silver from the dressing of Example 1 was placed in the water reservoir of the humidifier. When power was applied to the humidifier aerosol droplets of dissolved and suspended silver were generated and flowed from the output nozzle.
(§3) A test chamber was constructed using a stainless steel frame with a transparent plastic covering. The frame was placed on a stainless steel base plate. The output nozzle from the humidifier was modified so that the aerosol could be directed into the chamber at a height of approximately 30 cm from the base. The plates and other test samples were placed on the stainless steel plate and exposed to the aerosol for a prescribed length of time.
(§4) Petri dishes, containing Mueller Hinton agar, were streaked with 4 h old cultures of Pseudomonas aeruginosa or Staphylococcus aureus. The plates were then weighed and their exposed outer surfaces were coated with Parafilm to prevent condensation from occurring on these surfaces. These plates were placed in the aerosol chamber uncovered. The ultrasonic nebulizer was then started and run for 53 minutes. The plates were then removed from the chamber, the plastic was removed and the dishes re-weighed so that the amount of moisture loss/gain could be determined.
(§5) The plates were then placed in a 35° C. incubator for 16 h. After incubation the pattern and amount of growth was assessed on the plates for both organisms.
(§6) Three of the six plates made for each organism were tested to determine if the antimicrobial effect was cidal or static in nature. This was accomplished by rinsing or placing a piece of the clear section of agar in the Petri dish plates into Tryptic soy broth in a test tube and incubating for 4 h or 16 h. If the medium turned turbid in 4 h it would indicate that the antimicrobial affect was bacteriostatic in nature. If the organisms took more than 16 h to grow, as indicated by turbidity, it was considered an indication that both static and cidal effects occurred. If no growth occurred the effect was bactericidal.
as §1, with “the solution of nanocrystalline noble metal-containing material.” for “the silver solution.”, “Pseudomonas aerugiona” for “Pseudomonas aeruginosa”, “Staphylococcus aureus” for “Staphylococcus aureus,”, “to nanocrystalline noble metal” for “to the silver solution”
(§7) The method used to create an aerosol for these tests was the mechanical method in the form of an ultrasonic nebulizer. For convenience, an ultrasonic humidifier was used. The liquid containing the dissolved and suspended antimicrobial metal-containing material with atomic disorder was placed in the water reservoir of the humidifier. When power was applied to the humidifier, aerosol droplets of dissolved and suspended antimicrobial metal-containing material with atomic disorder were generated and flowed from the output nozzle.
(§8) A test chamber was constructed using a stainless steel frame with a transparent plastic covering. The frame was placed on a stainless steel plate.

[3] = tested on: Pseudomonas aeruginosa; assay: as above; format: cell-based; design: key to Growth at 16 h (0−++++) / Growth at 48 h (0−++++): (0−++++); (0−++++); (0−++++); (0−++++); conditions: for Growth at 16 h (0−++++) / Growth at 48 h (0−++++): aerosol 53 minutes; for Viable 4 h / Viable 16 h: regrowth in Tryptic soy broth
Protocol: as §1, §2, §3, §4, §5, §6
as §1, with “the solution of nanocrystalline noble metal-containing material.” for “the silver solution.”, “Pseudomonas aerugiona” for “Pseudomonas aeruginosa”, “Staphylococcus aureus” for “Staphylococcus aureus,”, “to nanocrystalline noble metal” for “to the silver solution”
as §7, §8

[4] = tested on: Pseudomonas infected lungs; assay: rat lung infection, gross lung score; format: in vivo; conditions: individual animals, absent=0, mild=1, moderate=2, severe=3
Protocol: A solution form nanocrystalline silver coated dressings (AgHDPE) from Example 1 was prepared by sparging CO2 through 1000 ml of reverse osmosis water using commercial CO2 Soda Syphon Charger. […] At this point, approximately 333 ml of the carbonated water was decanted into a plastic bottle and 333 square inches of nanocrystalline silver-coated net was added to the water. The nanocrystalline silver-coated net and water were placed in 37° C. shaker incubator and shaken at 180 RPM for 30 minutes to elevate the pH to approximately 5.8. The solution was then transferred to a beaker and stirred vigorously for 2 minutes to raise the pH to approximately at 7.3. The dissolution solution was transferred to a commercial nebulizer which was connected to a medical air cylinder with a flow rate of approx. 20 L/min. The outflow of the nebulizer was connected to a animal chamber housing the rats to be dosed. Only the “test” rats (12 randomly assigned animals) received the dosing. The rats received two —½ hour aerosol administrations of the test solution on the day of infection. […]
On each day, six rats of each group of animals were sacrificed. […] Lungs were grossly scored (absent=0, mild=1, moderate=2, and severe=3) based on the degree and involvement of consolidation, hemorrhage, edema and necrosis based upon gross observation.

[5] = tested on: Pseudomonas infected lungs; assay: rat lung infection, histopathology of lung samples; format: in vivo; conditions: for Consol Score / Inflam Score: 0=normal to 4 very severe
Protocol: A solution form nanocrystalline silver coated dressings (AgHDPE) from Example 1 was prepared by sparging CO2 through 1000 ml of reverse osmosis water using commercial CO2 Soda Syphon Charger. […] At this point, approximately 333 ml of the carbonated water was decanted into a plastic bottle and 333 square inches of nanocrystalline silver-coated net was added to the water. The nanocrystalline silver-coated net and water were placed in 37° C. shaker incubator and shaken at 180 RPM for 30 minutes to elevate the pH to approximately 5.8. The solution was then transferred to a beaker and stirred vigorously for 2 minutes to raise the pH to approximately at 7.3. The dissolution solution was transferred to a commercial nebulizer which was connected to a medical air cylinder with a flow rate of approx. 20 L/min. The outflow of the nebulizer was connected to a animal chamber housing the rats to be dosed. Only the “test” rats (12 randomly assigned animals) received the dosing. The rats received two —½ hour aerosol administrations of the test solution on the day of infection. Thereafter, the test rats were dosed 3 times per day for an additional one and a half days.
The bacteria used for infection of these animals were Pseudomonas aeruginosa strain 5588. The dose was previously titrated to ascertain that a dose of up to 10^9 CFU was not lethal for the animals. The bacteria were grown overnight in Tryptic soy broth, washed once in sterile PBS and resuspend in sterile PBS. The final concentration of the inoculum was 4×10^9 CFU/ml.
The rats were anesthetized by inhalation of 2% halothane. A 400 microliter volume of bacterial suspension was intratracheally administered in the bronchi of each rat. This was performed non-surgically on intubated animals.
Histopathology was scored (0-4) based upon the degree of consolidation and inflammation (neutrophil infiltration). The entire right middle lobes of all rats were collected for histopathology. As whole lobes were selected there was no bias toward any sample. All samples were fixed in neutral buffered formalin at the time the lung was removed from the thorax. It was fixed overnight, dehydrated and embedded in was. Sections were obtained which were hydrated and stained with haematoxylin and eosin.
All sections were examined by a veterinary pathologist who was blinded to the treatment groups, until after the samples were scored and comments were provided. (0=normal, 1=slight, 2 moderate, 3 severe, 4 very severe).

[6] = Solutions 1 and 3: Ag 85 (dressing) / 99 (AgNO3) μg/ml
[7] = Solutions 1 and 3: Ag 85 / 99 μg/ml
[8] = Solutions 1 and 3: Ag 85 / 99 μg/ml, regrowth in Tryptic soy broth
[9] = Solutions 2 and 4: Ag 370 (dressing) / 300 (AgNO3) μg/ml
[10] = Solutions 2 and 4: Ag 370 / 300 μg/ml

With `O=[N+]([O-])[O-].[Ag+]` [AgNO3, silver nitrate] the “gross score of lungs” value [1] was “moderately to severely inflamed”, the “Growth at 16 h (0−++++)” value [2, 6] was 0 and the “Growth at 16 h (0−++++)” value ([2]; Solutions 1 and 3: Ag 85 (dressing) / 99 (AgNO3) μg/ml, listed as AgNo3) was “++++”. The “Growth at 48 h (0−++++)” value [2, 7] was “++++”, the “Viable 4 h” value [2, 8] was “No” and the “Viable 16 h” value [2, 8] was “Yes”. For the same molecule, the “Viable 4 h” value ([2]; Solutions 1 and 3: Ag 85 / 99 μg/ml, regrowth in Tryptic soy broth, listed as AgNo3) was “Yes”, the “Growth at 16 h (0−++++)” value [2, 9] was 0 and the “Growth at 48 h (0−++++)” value [2, 10] was “+++”. The “Viable 4 h” value ([2]; Solutions 2 and 4: Ag 370 / 300 μg/ml, regrowth in Tryptic soy broth) was “No”, the “Growth at 16 h (0−++++)” value [3, 6] was 0 and the “Growth at 48 h (0−++++)” value [3, 7] was 0. For the same molecule, the “Viable 4 h” value [3, 7] was “No”, the “Viable 16 h” value [3, 7] was “No” and the “Viable 16 h” value ([3]; Solutions 1 and 3: Ag 85 / 99 μg/ml, listed as AgNo3) was “Yes”. The “Growth at 16 h (0−++++)” value [3, 9] was 0, the “Growth at 48 h (0−++++)” value [3, 10] was 0 and the “Viable 4 h” value [3, 10] was “No”. The “Viable 16 h” value [3, 10] was “No”.

For `NC[C@H]1O[C@H](O[C@H]2[C@H](O)[C@@H](O[C@H]3O[C@H](CO)[C@@H](O)[C@H](N)[C@H]3O)[C@H](N)C[C@@H]2N)[C@H](N)C[C@@H]1O` [Tobramycin], the gross lung score ([4]; 24 h) was 2 (3×) and 3 (2×) and 1, the gross lung score ([4]; 48 h) was 1 (4×) and 2 and Dead and the “Comments (histopathology)” value ([5]; Time 24) was “Severe infiltration of PMNs into interstitial spaces”. For the same molecule, the “Consol Score” value ([5]; Time 24) was 3, the “Inflam Score” value ([5]; Time 24) was 3 and the “Comments (histopathology)” value ([5]; Time 48) was “Severe infiltration of PMNs into interstitial spaces”. For the same molecule, the Involvement of sample ([5]; Time 48) was “in affected areas. Involvement of 70% of sample”, the “Consol Score” value ([5]; Time 48) was 3 and the “Inflam Score” value ([5]; Time 48) was 3.
